Measured values from US5767119A, “Method of treating neurodegenerative diseases using an AMPA excitatory amino and an uricosuric agent” (Warner-Lambert Company, priority 1996, dated 1998).
Where two headings read alike, the source gives them in different places. Blank lines part the entries; values can stand above or below the compound they belong to.

Assays:
[1] = NMDA-induced brain injury (neuroprotection), injection into the striatum; assay type: in vivo, rat (seven-day-old albino pups)
Experimental: The neuroprotective action of 5,7-dichlorokynurenate is assessed using an animal model with young rats. Seven-day-old albino rat pups of either sex are anesthetized and given N-methyl-D-aspartate (NMDA) by injection with a fine hypodermic needle into the right posterior corpus striatum. Four days later, the degree of brain damage from NMDA injection is assessed by comparing wet weights of the injected cerebral hemispheres. Methods are similar to those of J. W. McDonald et al. in Experimental Neurology 106:289-296 (1989) except that 15 nmol of NMDA is used rather than 25 nmol as in the McDonald method. The neuroprotective action of 5,7-dichlorokynurenic acid is assessed by injecting it directly into the striatum of the brain in combination with NMDA.

[2] = mouse, in vivo
Experimental: A follow-up study is performed in which tritiated 5,7-dichloro-1,4-dihydro-4-oxo-2-quinolinecarboxylic acid is injected directly into the cerebral ventricle of mice at two dose levels.

[3] = mouse, in vivo, iv
[4] = maximal electroshock, prevention of tonic extensor seizures (anticonvulsant action); assay type: in vivo, mice (adult male CF1 strain); conditions: for ED50: probit analysis
Experimental: Adult male CF1 strain mice (18 to 24 g body weight) are obtained from Charles River Laboratories. Mice are allowed free access to food and water prior to testing. Maximal electroshock is performed according to conventional methods (Krall, R. L., et al, Antiepileptic drug development: II. Anticonvulsant drug screening, Epilepsia 19:409-428 (1978). Electrical current (50 mA sinusoid at 60 Hz) is applied by metal corneal electrodes for 0.2 sec. This intensity of electrical current is five times the amount needed to produce tonic extensor seizures in untreated mice. Pretreatment of mice with known anticonvulsant drugs prevents tonic extensor seizures in a dose-related manner (Krall, R. L., et al, Antiepileptic drug development: II. Anticonvulsant drug screening, Epilepsia 19:409-428 (1978). A drug is prepared for intravenous administration by dissolution in aqueous medium with 0.9% sodium chloride. Probenecid is finely divided with mortar and pestle and suspended in 0.2% carboxymethylcellulose in water and given by intraperitoneal injection 30 minutes before administration of anticonvulsant drugs.
That is, groups of ten mice each are pretreated with probenecid (200 mg/kg IP) or saline vehicle. Thirty minutes later each group is given a known anticonvulsant dose of one of several anticonvulsant drugs. The time course of anticonvulsant activity is determined by maximal electroshock testing in groups of mice at various times after administration of the anticonvulsant.
Using procedures identical to those of Example 2, but with administration of several different doses of NBQX, ED50 values were determined by probit analysis (J. T. Litchfield and F. Wilcoxon in Journal of Pharmacology 96:99-113, 1949), with times of testing chosen at approximately the time of maximal anticonvulsant effect (30 seconds for NBQX alone and 10 minutes for NBQX with probenecid coadministration, from Example 1).

[5] = cited from earlier work; for Protection: MDL 100,748 65 mg/kg IV
[6] = CNS behavioral effects; assay type: in vivo, mice; conditions: NBQX 25 mg/kg in combination with probenecid

ratio of area under the brain radioactivity curve (5-120 minutes) for the 1.3 mg/kg to 0.3 mg/kg dose [2]: 12
Compound: O=C(O)c1cc(O)c2c(Cl)cc(Cl)cc2n1 [5,7-dichlorokynurenic acid]
neuroprotective action ([1]; three different doses co-injected with 15 nmol NMDA, pretreatment with 200 mg/kg probenecid): significantly enhanced
transport from brain to blood [2]: actively transported from brain to blood by a saturable process
penetration and/or retention of radiolabeled material in brain tissue [3]: very little penetration and/or retention of radiolabeled material is observed in brain tissue

Compound: O=C(O)C1CN(CCCP(=O)(O)O)CCN1 (stereo not shown) [CPP, 4-(3-phosphonopropyl)-2-piperazinecarboxylic acid]
duration of significant anticonvulsant action ([4]; CPP 3 mg/kg IV, with probenecid 200 mg/kg IP): 240 min
percentage of mice protected from maximal electroshock seizures ([4]; CPP 3 mg/kg IV, with vs without probenecid coadministration): increased by probenecid coadministration at each time point tested
duration of significant anticonvulsant action ([4]; CPP 3 mg/kg IV, without probenecid): 120 min

Compound: O=C(O)CN=c1cc(C(=O)O)[nH]c2cc(Cl)cc(Cl)c12 [MDL 100,748, 4-[(carboxymethyl)imino]-5,7-dichloro-1,4-dihydro-2-quinolinecarboxylic acid]
Protection ([5]; 5 min prior to QA, without probenecid): 9/10
Protection ([5]; 5 min prior to QA, pretreated with probenecid 200 mg/kg IP 30 min before): 9/10
Protection ([5]; 30 min prior to QA, without probenecid): 0/10
Protection ([5]; 30 min prior to QA, pretreated with probenecid 200 mg/kg IP 30 min before): 7/10
duration of protection against seizures induced by quinolinic acid ([5]; pretreated with probenecid, preliminary): longer duration of protection against seizures

Compound: NS(=O)(=O)c1cccc2c1c([N+](=O)[O-])cc1nc(O)c(O)nc12 [NBQX, 2,3-dihydroxy-6-nitro-7-sulfamoyl-benzo(F)-quinoxaline]
ED50 ([4]; Mus musculus, 0.5 min, NBQX alone, IV, tested at 30 seconds, read-out: ED50): 13.1 mg/kg
time until which significant anticonvulsant actions are present ([4]; NBQX 25 mg/kg IV after saline vehicle): 3 min
anticonvulsant action ([4]; NBQX 25 mg/kg IV after saline vehicle, 15 minutes after dosing): only insignificant anticonvulsant action is seen
anticonvulsant effects ([4]; NBQX 25 mg/kg IV with probenecid 200 mg/kg IP, 15 minutes after dosing): significant anticonvulsant effects are seen
anticonvulsant effects ([4]; NBQX 25 mg/kg IV with probenecid 200 mg/kg IP, 30 minutes after dosing): significant anticonvulsant effects are seen
anticonvulsant effects ([4]; NBQX 25 mg/kg IV with probenecid 200 mg/kg IP, 1 hour after dosing): significant anticonvulsant effects are seen
anticonvulsant effects ([4]; NBQX 25 mg/kg IV with probenecid 200 mg/kg IP, 2 hours after dosing): significant anticonvulsant effects are seen
anticonvulsant effects (significant effects seen or not) ([4]; NBQX 25 mg/kg IV with probenecid 200 mg/kg IP, 4 hours after dosing): not 4 hours (14400 seconds) after dosing
ED50 ([4]; NBQX IV coadministered with probenecid 200 mg/kg IP, tested at 10 minutes): 2.57 mg/kg
increase in potency following probenecid coadministration ([4]; NBQX with vs without probenecid, ED50 values differ significantly (p <0.05)): approximately fivefold
CNS behavioral effects [6]: ptosis, profoundly decreased locomotor activity, greatly delayed righting reflex, and somnolence

Compound: CCCN(CCC)S(=O)(=O)c1ccc(C(=O)O)cc1 [Probenecid]
extent of brain damage ([1]; probenecid alone, in comparison to untreated animals): did not alter the extent of brain damage
anticonvulsant actions ([4]; probenecid 200 mg/kg IP followed by IV sodium chloride vehicle): no anticonvulsant actions in any of 10 mice
